Measurements: patent US9446045B2, “Methods of using selective chemotherapeutic agents for targeting tumor cells” (Duquesne University of the Holy Ghost, priority 2006, dated 2016)

Key:
[1] = test system: FR-alpha expressing RT16 cells; experiment: Inhibition of FR-alpha expressing RT16 cells; assay type: cell-based; conditions: for selectivity for FR-alpha expressing RT16 cells over RFC expressing pc43-10 cells: RT16 vs pc43-10 cells
Description: (§1) AAG366, AAG344, the clinically used antifolates methotrexate, pemetrexed, ratitrexed, as well as the most important GARFTase inhibitor DDATHF (Lometrexol) were evaluated.

[2] = test system: RFC expressing pc43-10 cells; experiment: Inhibition of RFC expressing pc43-10 cells; assay type: cell-based; conditions: pc43-10 cells vs FR-alpha expressing cells
Description: as §1

SMILES | potency against FR-alpha expressing RT16 cells compared with AAG366 and AAG344 [1] | selectivity for FR-alpha expressing RT16 cells over RFC expressing pc43-10 cells [1] | potency against RFC expressing pc43-10 cells compared to FR-alpha expressing RT16 or KB cells [2]
Nc1nc2c(c(=O)[nH]1)C[C@@H](CCc1ccc(C(=O)N[C@@H](CCC(=O)O)C(=O)O)cc1)CN2 [DDATHF] | less potent | none showed selectivity | equal potency
CN(Cc1cnc2nc(N)nc(N)c2n1)c1ccc(C(=O)N[C@@H](CCC(=O)O)C(=O)O)cc1 [methotrexate] | less potent | none showed selectivity | greater potency
Nc1nc2[nH]cc(CCc3ccc(C(=O)N[C@@H](CCC(=O)O)C(=O)O)cc3)c2c(=O)[nH]1 [pemetrexed] | less potent | none showed selectivity | greater potency
Cc1nc(=O)c2cc(CN(C)c3ccc(C(=O)N[C@@H](CCC(=O)O)C(=O)O)s3)ccc2[nH]1 [ratitrexed] | less potent | none showed selectivity | greater potency
